Assay results: patent US20130253037A1, “AURORA A KINASE EFFECTORS” (PURDUE RESEARCH FOUNDATION, priority 2010, published 2013)
Positions count from the first letter of the chain named. Entries after “also recorded” stand apart in the source; their conditions may differ.

Assays:
[1] = target: T1, AA-as7 kinase (Aurora A LI85V, L201G) (Mus musculus, UniProt P97477, L185V/L201G); assay: In vitro kinase assay with AA-as7 and TPX2; format: biochemical, murine
T1 construct: the Aurora A mutant is the double mutant Aurora A (AA-as7); 6-His; made in house; host or cells: Sf9 insect cells (baculovirus, Bac-to-Bac)
T1 sequence (P97477 1-395 L185V/L201G): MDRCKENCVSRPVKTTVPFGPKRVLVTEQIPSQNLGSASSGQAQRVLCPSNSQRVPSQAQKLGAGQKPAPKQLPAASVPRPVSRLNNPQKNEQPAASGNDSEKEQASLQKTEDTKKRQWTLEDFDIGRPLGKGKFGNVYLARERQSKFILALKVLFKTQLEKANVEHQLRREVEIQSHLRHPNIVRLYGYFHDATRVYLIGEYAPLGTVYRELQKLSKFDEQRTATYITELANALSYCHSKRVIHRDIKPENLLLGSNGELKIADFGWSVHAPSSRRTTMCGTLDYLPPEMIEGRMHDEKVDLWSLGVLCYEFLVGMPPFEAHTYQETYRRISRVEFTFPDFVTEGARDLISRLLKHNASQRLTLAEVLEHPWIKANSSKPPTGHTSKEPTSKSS
Experimental: (§1) For in vitro labeling, Aurora A/TPX2 complex (on beads) was pre-incubated with 10 μM cold ATP for 10 min to activate the kinase. The beads were washed twice with kinase buffer, and then subjected to kinase assay with 2-5 μg of recombinant protein (such as PHLDA) and 1 μCi of [γ-^32P] ATP. Reactions were terminated by adding SDS sample buffer, separated by SDS-PAGE gel, transferred to PVDF membrane and exposed to Biomax MS film. Aurora A kinase assays were conducted using 1 μCi of [γ-^32P] ATP and 3 μg of Aurora A substrate peptide in a final volume of 30 μl at 30° C. as reported before (Sun, et al, (2008a) Mol. Biol. Cell 19, 3052-3069).
(§2) IC50 values were determined by fitting the data to a sigmoidal dose response curve using GraphPad Prism 4.0 software. Km and Vmax values were derived from the assay described above using various concentrations of AA peptide substrate and ATP. Km and Vmax values were determined using GraphPad Prism 4.0 software.

wild-type Aurora A = target: T2, wild-type Aurora A (Mus musculus, UniProt P97477); assay: In vitro kinase assay with wild-type Aurora A and TPX2; format: biochemical, murine
T2 construct: 6-His; made in house; host or cells: Sf9 insect cells (baculovirus, Bac-to-Bac)
T2 sequence (P97477 1-395): T1 sequence (P97477 1-395 L185V/L201G) with V185L, G201L
T2 sequence (Q9ULW0 1-747 partner): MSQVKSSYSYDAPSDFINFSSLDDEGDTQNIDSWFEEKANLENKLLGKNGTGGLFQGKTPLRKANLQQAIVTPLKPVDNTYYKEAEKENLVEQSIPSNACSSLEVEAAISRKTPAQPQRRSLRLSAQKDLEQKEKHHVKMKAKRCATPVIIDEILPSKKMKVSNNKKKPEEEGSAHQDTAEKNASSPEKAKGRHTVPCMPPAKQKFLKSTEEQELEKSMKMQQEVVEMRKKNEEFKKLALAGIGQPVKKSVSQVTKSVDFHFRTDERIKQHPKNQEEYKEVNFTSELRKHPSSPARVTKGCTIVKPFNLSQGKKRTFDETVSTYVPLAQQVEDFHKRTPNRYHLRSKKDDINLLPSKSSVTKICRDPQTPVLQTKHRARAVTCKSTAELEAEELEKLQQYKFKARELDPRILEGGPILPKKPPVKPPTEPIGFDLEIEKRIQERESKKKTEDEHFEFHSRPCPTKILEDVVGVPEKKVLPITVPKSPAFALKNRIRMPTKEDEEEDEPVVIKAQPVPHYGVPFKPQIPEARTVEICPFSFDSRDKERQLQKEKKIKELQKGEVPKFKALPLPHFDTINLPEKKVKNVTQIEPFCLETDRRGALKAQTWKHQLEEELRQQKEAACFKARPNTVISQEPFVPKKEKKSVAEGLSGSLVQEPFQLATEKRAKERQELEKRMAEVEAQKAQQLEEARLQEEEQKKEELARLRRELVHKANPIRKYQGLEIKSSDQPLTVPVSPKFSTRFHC
Experimental: as §1, §2

AA-as7-NIH3T3 cells = assay: Soft agar colony formation, AA-as7-NIH3T3 cells; format: cell-based; settings: 0.5 μM
Experimental: (§3) Briefly equal volumes of nobel agar (1%, DNA grade) and 2×RPMI 1640 (with 20% FBS) were mixed at 40° C. to make 0.5% agar in six-well tissue culture plates (Corning) as a base agar. Cells (0.1 ml of 2.0×10^5/ml) were suspended in 3 mL of 2×RPMI 1640 (with 20% FBS) and 3 ml of 0.7% agar. 1.5 ml of this suspension was added to each well (as 0.35% top agar) with final concentration of 5,000 cells per well. Top agar was covered with 500 μl of culture media. Plates were incubated at 37° C. for 3 to 4 weeks. Fresh media was added every three days.
(§4) For 1-NM-PPI experiments, fresh media containing 1-NM-PP1 (100 nM) or DMSO were added to the cells every 3 days. Colony formation was observed by light phase-contrast microscope and visually after staining with 0.5 ml of 0.01% crystal violet in PBS for 45 min at room temperature. Experiments were repeated in quadruplicate, two independent times to ensure the reproducibility of the results.

[2] = tested on: wild-type Aurora A-expressing NIH3T3 cells; assay: Soft agar colony formation, wild-type Aurora A-NIH3T3 cells; format: cell-based; settings: 0.5 μM (identical conditions)
Experimental: as §3, §4

AA-as7-MDA cells = assay: Western blot of protein levels after 1-NM-PP1, AA-as7-MDA cells; format: cell-based; settings: for Aurora A levels: AA-as7-MDA cells treated with inhibitor
Experimental: Aurora A can regulate its substrates using either its kinase activity or scaffolding function. Therefore, to dissect the mechanism further, AA-MDA and AA-as7-MDA were treated with 1-NM-PP1 for 12 h and PHLDA1 expression analyzed.
(§5) AA-MDA and AA-as7 MDA cells were treated with either DMSO or 1-NM-PP1 (250 nM) for 12 h, followed by cell lysis. For MLN8237 experiment, MDA cells were treated with 1 μM MLN8237 for 12 h.
(§6) Cells were harvested and lysed in modified RIPA buffer, supplemented with protease inhibitors. Equal amounts of cell extracts were then used to conduct western blot.
Aurora A-mediated phosphorylation of its substrates often promotes their degradation (e.g. p53, PHLDA1) or stabilization (ASAP1). Therefore, we investigated whether Aurora A exerts control over LIMK2 level. Aurora A was transiently depleted in MDA cells using two different shRNAs, causing concomitant decrease in LIMK2 level (FIG. 6A). Wild-type and mutant AA (AA-as7) were stably overexpressed in MDA cells (AA-MDA and AA-as7-MDA cells respectively), leading to considerable increase in LIMK2 levels (FIG. 6B), thereby confirming that Aurora A positively regulates LIMK2 levels. Aurora A can regulate its substrates using either its kinase activity or scaffolding function. Aurora A regulates p53 levels by phosphorylation, but regulates ASAP levels through the scaffolding function. Therefore, to dissect the mechanism by which Aurora A regulates LIMK2, AA-MDA and AA-as7-MDA cells were treated with 1-NM-PP 1 for 12 h and LIMK2 expression analyzed.

[3] = target: Aurora B-as7 (L138V, L154G-AB) kinase (Homo sapiens, UniProt Q96GD4, L138V/L154G); assay: In vitro kinase assay with AB-as7; format: biochemical; settings: phosphodonor as labelled
wild-type Aurora B = wild-type Aurora B (Homo sapiens, UniProt Q96GD4); assay: In vitro kinase assay with wild-type Aurora B; format: biochemical
MDA cells = assay: Western blot of LIMK2 and Aurora A levels after MLN8237, MDA cells; format: cell-based
Experimental: FIG. 11A-11F Aurora A and LIMK2 positive feedback loop is a common feature in several cancers. […] PC3 cells were transfected with scrambled shRNA (lane 1) or Aurora A-shRNA2 (lane 2) and Aurora A and LIMK2 levels analyzed after 30 h. […] FIG. 11C is a western blot showing that Aurora A ablation in HCT116 and PaCa2 cells depletes LIMK2. HCT116 and PaCa2 cells were transfected with scrambled shRNA (lanes 1 and 3) or Aurora A-shRNA2 (lanes 2 and 4) and Aurora A and LIMK2 levels analyzed. […] FIG. 11E is a western blot showing that LIMK2 acts as a pharmacodynamic biomarker for Aurora A kinase activity. Aurora A was inhibited using 0.5 μM MLN8237 in MDA cells and Aurora A, LIMK2 and actin levels analyzed. […] MDA cells were incubated with MLN8237 (0.5 μM and 1 μM) or the vehicle (DMSO). After 48 h, cells were analyzed using MTT assay. p*<0.05, when compared to the control.
as §5, §6
Over a dozen Aurora A targeted drugs are in clinical trials. […] Aurora A was inhibited using MLN8237 and LIMK2 levels analyzed.

[4] = tested on: HA-tagged LIMK2 in MDA cells; assay: Gel shift / Western blot of HA-tagged LIMK2 and mutants in MDA cells after MLN8237; format: cell-based; settings: additional 12 h
Experimental: FIGS. 8A-8D. Aurora A phosphorylates LIMK2 at 5283, T494 and T505 which increases its protein stability. […] 6-His-tagged wild type, (S283A) LIMK2, (T494A) LIMK2 and (T505A) LIMK2 mutants were phosphorylated using Aurora A/TPX2 and [^32P] ATP for 15 min and the products were separate by electrophoresis. […] Nucleic acids sequence encoding HA-tagged (S283A) LIMK2, (T494A) LIMK2, and (T505A) LIMK2 were transfected in MDA cells. After 30 h, cells were incubated with 0.5 μM MLN8237 for additional 16 h. Gel shift assay was performed using 10% SDS PAGE. Protein levels were analyzed using HA and actin antibodies. FIG. 8C is a western blot showing Aurora A promotes LIMK2 stability by phosphorylating S283, T494 and T505. Nucleic acids sequences encoding HA-tagged wt LIMK2, (S283A, T494A) LIMK2 (2A) and (S283A, T494A, T505A) LIMK2 (3A) were transfected in MDA cells. After 30 h, protein levels were analyzed using Aurora A, HA and actin antibodies. […] Wild type, double (2A) and triple (3A) mutants of LIMK2 were transfected in MDA cells along with 6-His Ubiquitin and LIMK2 ubiquitination analyzed.
Aurora A inhibits LIMK2 degradation by directly phosphorylating it at Ser283, Thr494 and Thr505: Since Aurora A regulates LIMK2 by phosphorylation (FIG. 6A), we set to identify Aurora A-mediated phosphorylation sites on LIMK2. Aurora A preferentially phosphorylates R/K/N-R-X-S/T-B, where B denotes any hydrophobic residue except Pro (Ferrari et al. (2005) Biochem. J. 390, 293-302). […] S283A, T494A and T505A LIMK2 alleles were generated and their phosphorylation analyzed in vitro. Aurora A phosphorylates LIMK2 at all these sites (FIG. 8A). […]
To confirm these findings, HA-tagged LIMK2 double mutant (S283A, T494A) and HAtagged LIMK2 triple mutant (S283A, T494A, T505A) were generated and transfected in MDA cells. […] After 24 h, Aurora A was inhibited using MLN8237 for an additional 12 h, and LIMK2 levels analyzed using HA antibody.

[5] = AA-as7, phosphodonor as labelled

wild-type Aurora B, sequence (Q96GD4 whole entry): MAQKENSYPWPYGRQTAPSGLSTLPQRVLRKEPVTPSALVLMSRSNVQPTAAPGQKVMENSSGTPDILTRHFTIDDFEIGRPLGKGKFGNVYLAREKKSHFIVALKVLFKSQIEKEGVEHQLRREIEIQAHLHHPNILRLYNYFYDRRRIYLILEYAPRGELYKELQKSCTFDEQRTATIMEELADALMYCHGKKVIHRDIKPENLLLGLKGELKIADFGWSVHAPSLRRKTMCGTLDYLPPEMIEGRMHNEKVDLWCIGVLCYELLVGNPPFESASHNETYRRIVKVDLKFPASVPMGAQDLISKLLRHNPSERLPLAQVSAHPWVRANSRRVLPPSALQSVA
Aurora B-as7 (L138V, L154G-AB) kinase, sequence (Q96GD4 whole entry L138V/L154G): as the sequence (Q96GD4 whole entry) above, with L138V, L154G counted along it

For `CC(C)(C)n1nc(Cc2cccc3ccccc23)c2c(N)ncnc21` [1-NM-PP1], the IC50 ([1]; AA-as7 kinase) was 1.7 nM, the “inhibition of wild-type Aurora A” value (wild-type Aurora A; even at higher concentrations) was “does not inhibit” and the “colony formation in soft agar” value (AA-as7-NIH3T3 cells) was “completely inhibited colony formation”. For the same compound, the “colony formation in soft agar” value [2] was “robust colony formation”, the LIMK2 level (AA-as7-MDA cells; 250 nM, 12 h, AA-as7-MDA cells) was “significant decrease; also recorded: reduces LIMK2 levels” and the PHLDA1 level (AA-as7-MDA cells; 12 h, AA-as7-MDA cells) was “increased”. For the same compound, the “Aurora A levels” value (AA-as7-MDA cells) was “reduces Aurora A levels significantly” and the “Aurora A levels” value (AA-as7-MDA cells; listed as 1-NM-PP 1) was “decreased Aurora A levels; also recorded: lower Aurora A levels”.

For `Nc1ncnc2c1ncn2[C@@H]1O[C@H](COP(=O)(O)OP(=O)(O)OP(=O)(O)O)[C@@H](O)[C@H]1O` [ATP], the Kcat [1, 5] was 54.2 s⁻¹, the Km [1, 5] was 17.7 µM and the Vmax [1, 5] was 7.31 × 10^5. The Kcat (wild-type Aurora A; wild-type Aurora A) was 31.3 s⁻¹, the Km (wild-type Aurora A; wild-type Aurora A) was 16.2 µM and the Vmax (wild-type Aurora A; wild-type Aurora A) was 4.24 × 10^5. For the same compound, the Kcat [3] was 2.75 s⁻¹, the Km [3] was 30.4 µM and the Vmax [3] was 3.30 × 10^4. For the same compound, the Kcat (wild-type Aurora B) was 4.27 s⁻¹, the Km (wild-type Aurora B) was 23 µM and the Vmax (wild-type Aurora B) was 5.12 × 10^4.

In the case of `COc1cc(Nc2ncc3c(n2)-c2ccc(Cl)cc2C(c2c(F)cccc2OC)=NC3)ccc1C(=O)O` [MLN8237], the “Aurora A levels” value (MDA cells) is reported as “reduced”, the LIMK2 levels (MDA cells) is reported as “depleted LIMK2 levels; also recorded: reduced” and the “phospho-levels and protein levels of wt LIMK2 and (S283A, T494A) LIMK2” value [4] is reported as “decreased”. The “phosphorylation level (top band) and overall protein level of LIMK2 single mutants (S283A, T494A, T505A)” value [4] was “decreased” and the “protein and phospho-levels of LIMK2 triple mutant (S283A, T494A, T505A)” value [4] was “remained unchanged”.
